This assay deals with LLC1 lung carcinoma. Nature of the assay: LLC1 tumor model in WT mice. Type of assay: in vivo. As for the experimental part:
FIG. 6: Usp22 inhibitor administration enhances antitumor immunity. A, Structure of compound CS30 (Usp22i-S02). B, FOXP3 MFI in WT and 22KO of Treg cells after treatment with 20 mg/kg of Usp22i-S02 in vivo (n=3). C, Representative flow cytometry plot of FOXP3+CD25+ MFI of CD4+ peripheral cells of mice treated with 20 mg/kg of Usp22i-S02 relative to control (n=5). D, Graphical representation of Foxp3 MFI upon Usp22i-S02 administration (n=5). E, Tumor growth curve of LLC1 cells subcutaneously injected in the flank of WT mice with or without the addition of 20 mg/kg/time of the Usp22 inhibitor starting at day 15, in 100 μL of oil (n=4). F-G, Representative flow cytometry plot and graphical representation of % infiltration of CD4+ and CD8+ T cells within the tumor (n=4). H, Representative histogram plot and graphical representation of itTreg Foxp3 MFI (n=4). I, MFI of itTreg suppressive markers (n=3-4). J, Percent Foxp3+IFNg+ itTreg cells in control and Usp22-S02 treated mice (n=3-4). B, D-E, G, H-I Two-way ANOVA with multiple comparisons between rows was performed to determine statistical significance. J, Unpaired two tailed T test was performed to determine significance. All data are presented as mean±stdev. NS, not significant. *P<0.05, **P<0.01, ***P<0.001, ****P<0.0001.
FIG. 16: Usp22i-S02 has little effect on naïve mice, yet enhances anti-tumor immunity in LLC1-challenged mice. A, Body weight of Usp22i-S02 treated mice verses DMSO treated controls over the course of treatment (n=4). A-F. Injections were twice a day for 3 consecutive days at 10 mg/kg (n=4). B, Percent of cell populations in naïve mice treated with Usp22i-S02 relative to DMSO control (n=3-4). C, Percent of KI-67+ cells in various compartments in naïve mice treated with Usp22i-S02 relative to DMSO control (n=3-4). D, Percent CD44^hiCD62L^10 in T cell populations gated on CD45+ cells in naïve mice treated with Usp22i-S02 relative to DMSO control (n=3). E, Percent Annexin+PI+ T cells gates on CD45+ cells in naïve mice treated with Usp22i-S02 relative to DMSO control (n=4). […]

Regarding `N#Cc1c2c(c(Nc3ccccc3)n3c1nc1ccccc13)CCCC2` [Chemical S02, 11-anilino-7,8,9,10-tetrahydro-benzimidazo [1,2-b] isoquinoline-6-carbonitrile], the “intratumoral Foxp3+ Treg percentage” value (LLC1 tumors, not splenic) is recorded as “significantly decreased”. The “Teff cell tumor infiltration” value (established LLC1 tumors) was “significant increase in Teff cell tumor infiltration”. For the same compound, under “established LLC1 tumors, 20 mg/kg/time vs untreated”, the tumor rejection result is “striking tumor rejection”.
